# Reference: patent publication US5541174A, “Analgesic method” (priority 1995, dated 1996)
# Key:
# [1] = system: acetic acid induced writhing in mice; test: Acetic acid-induced writhing test; assay type: in vivo, ICR male mice
# Method: 1. Acetic acid-induced writhing test as described in Koster et al., "Acetic Acid for Analgesic Screening", Fed. Proc. 18, 412 (1959), incorporated by reference herein; and
# Groups of 10 ICR male mice (Taisho Pharmaceutical Co. Research Center) were used to study each dose of every compound. Ligands or complexes were administered orally or subcutaneously in 0.1 ml of vehicle per 10 g of body weight 30 minutes before the intrapertioneal injection of 0.1 ml of 0.7% acetic acid solution per 10 g of body weight. Number of writhes were counted for each mouse during a period of 10 to 20 min after acetic acid injection. Inhibitory percent was calculated by comparison with the number of writhes in the non-treated control, vehicle-treated, and acetic acid-injected group. The ED50 value and 95% confidence limits were calculated from the inhibitory percent by the method of Litchfield and Wilcoxon.
# [2] = system: adjuvant-induced arthritic pain in rats; test: Adjuvant-induced arthritic pain; assay type: in vivo, male Sprague-Dawley rats; conditions: oral
# From the text: 2. Adjuvant-induced arthritic pain as described in:
# S. KUZNA, et al., Measurement of Arthritic Pain and Effects of Analgesics in the Adjuvant-Treated Rat, Chem. Pharm. Bull. 23, 1184-1191 (1975);
# C. A. WINTER, et al., Analgesic Activity of Diflunisal in Rats with Hyperalygesia Induced by Freud's Adjuvant, J. Pharmacol. Exp. Ther. 211, 678-685 (1979; and
# M. E. ROSENTHALE, et al., Adjuvant Arthritis:Immuno-Pathological and Hyperalgesic Features, Fed. Proced. 41, 2577-2582 (1982),
# incorporated by reference herein.
# Groups of 5-6 male Sprague-Dawley rats (Taisho Pharmaceutical Co. Research Center) weighing 140 to 160 g at the time of Mycobacterium butyricum (adjuvant, Difco Laboratories, Detroit, Mich.) injection were used to study each compound. Rats were injected intradermally at the base of the tail with 0.1 ml of a parafin oil suspension of 0.5 mg of heat-killed mycobacterium. Fifteen to 19 days later, drugs were administered orally or subcutaneously in 0.5 ml of vehicle per 100 g of body weight to rats showing the nociceptive reaction, vocalization following a gentle flexion of the tarsal-tibial joint of the inflamed hind-paw. Vocalization responses were measured every hour for 5 hours. […] The ED50 value and 95% confidence limits were calculated from the positive rate for non-treated controls, vehicle-treated adjuvant arthritic rats, by the method of Litchfield and Wilcoxin.
# All drugs were suspended with 5% gum arabic in saline solution or wetted with enough propylene glycol to give a final concentration of 4% propylene glycol and the wetted solid suspended in 1.4% polyvinyl alcohol in saline.
smiles,measurement,setting,value
"COc1ccc2c(c1)c(CC(=O)O)c(C)n2C(=O)c1ccc(Cl)cc1 [Indomethacin, reference compound]",ED50,"[1]; oral, 5% gum arabic in saline",0.04 mmol/kg
same,% Inhibition,"[1]; oral, 5% gum arabic, 0.01 mmol/kg",36%
same,% Inhibition,"[1]; oral, 5% gum arabic, 0.03 mmol/kg",42%
same,% Inhibition,"[1]; oral, 5% gum arabic, 0.06 mmol/kg",58%
same,ED50,"[1]; oral, PG-PVA in saline",0.01 mmol/kg
same,% Inhibition,"[1]; oral, PG-PVA, 0.007 mmol/kg",27%
same,% Inhibition,"[1]; oral, PG-PVA, 0.014 mmol/kg",60%
same,% Inhibition,"[1]; oral, PG-PVA, 0.028 mmol/kg",68%
same,ED50,"[1]; s.c., PG-PVA in saline",0.02 mmol/kg
same,% Inhibition,"[1]; s.c., PG-PVA, 0.007 mmol/kg",19%
same,% Inhibition,"[1]; s.c., PG-PVA, 0.014 mmol/kg",36%
same,% Inhibition,"[1]; s.c., PG-PVA, 0.056 mmol/kg",60%
same,ED50,[2]; 5% gum arabic in saline,0.003 mmol/kg
same,% Inhibition,"[2]; 5% gum arabic, 0.001 mmol/kg",27%
same,% Inhibition,"[2]; 5% gum arabic, 0.003 mmol/kg",43%
same,% Inhibition,"[2]; 5% gum arabic, 0.006 mmol/kg",77%
same,ED50,[2]; PG-PVA in saline,0.02 mmol/kg
same,% Inhibition,"[2]; PG-PVA, 0.007 mmol/kg",23%
same,% Inhibition,"[2]; PG-PVA, 0.014 mmol/kg",43%
same,% Inhibition,"[2]; PG-PVA, 0.028 mmol/kg",70%
"O=C(O)c1cccnc1Nc1cccc(C(F)(F)F)c1 [Niflumic acid, 2[3(trifluoro-methyl)phenyl] aminonicotinic acid, reference compound]",ED50,"[1]; oral, 5% gum arabic in saline",0.15 mmol/kg
same,% Inhibition,"[1]; oral, 5% gum arabic, 0.18 mmol/kg",52%
same,% Inhibition,"[1]; oral, 5% gum arabic, 0.71 mmol/kg",75%
same,ED50,"[1]; oral, PG-PVA in saline",0.21 mmol/kg
same,% Inhibition,"[1]; oral, PG-PVA, 0.13 mmol/kg",38%
same,% Inhibition,"[1]; oral, PG-PVA, 0.27 mmol/kg",51%
same,% Inhibition,"[1]; oral, PG-PVA, 0.53 mmol/kg",80%
same,ED50,"[1]; s.c., PG-PVA in saline",0.10 mmol/kg
same,% Inhibition,"[1]; s.c., PG-PVA, 0.04 mmol/kg",21%
same,% Inhibition,"[1]; s.c., PG-PVA, 0.09 mmol/kg",54%
same,% Inhibition,"[1]; s.c., PG-PVA, 0.18 mmol/kg",64%
same,ED50,[2]; 5% gum arabic in saline,0.42 mmol/kg
same,% Inhibition,"[2]; 5% gum arabic, 0.18 mmol/kg",13%
same,% Inhibition,"[2]; 5% gum arabic, 0.71 mmol/kg",87%
same,ED50,[2]; PG-PVA in saline,0.48 mmol/kg
same,% Inhibition,"[2]; PG-PVA, 0.18 mmol/kg",23%
same,% Inhibition,"[2]; PG-PVA, 0.71 mmol/kg",60%
"O=C(O)c1ccccc1O [Salicylic acid, reference compound]",ED50,"[1]; oral, 5% gum arabic in saline",2.13 mmol/kg
same,% Inhibition,"[1]; oral, 5% gum arabic, 0.91 mmol/kg",29%
same,% Inhibition,"[1]; oral, 5% gum arabic, 1.81 mmol/kg",33%
same,% Inhibition,"[1]; oral, 5% gum arabic, 3.62 mmol/kg",73%
same,ED50,"[1]; oral, PG-PVA in saline",> 2.17 mmol/kg
same,% Inhibition,"[1]; oral, PG-PVA, 2.17 mmol/kg",38%
same,ED50,"[1]; s.c., PG-PVA in saline",1.02 mmol/kg
same,% Inhibition,"[1]; s.c., PG-PVA, 0.54 mmol/kg",25%
same,% Inhibition,"[1]; s.c., PG-PVA, 1.09 mmol/kg",52%
same,% Inhibition,"[1]; s.c., PG-PVA, 2.17 mmol/kg",80%
same,ED50,[2]; 5% gum arabic in saline,2.33 mmol/kg
same,% Inhibition,"[2]; 5% gum arabic, 1.09 mmol/kg",27%
same,% Inhibition,"[2]; 5% gum arabic, 2.17 mmol/kg",57%
same,% Inhibition,"[2]; 5% gum arabic, 4.34 mmol/kg",37%
same,time course of analgesia,"[2]; 5% gum arabic, FIG. 1, 5 hours post-treatment",began to decline in the 3 to 4 hr interval following treatment
same,ED50,[2]; PG-PVA in saline,1.83 mmol/kg
same,% Inhibition,"[2]; PG-PVA, 0.72 mmol/kg",33%
same,% Inhibition,"[2]; PG-PVA, 1.44 mmol/kg",43%
same,% Inhibition,"[2]; PG-PVA, 2.88 mmol/kg",60%
